US20220106289A1, “NLRP3 INHIBITORS” (INFLAZOME LIMITED, priority 2018, published 2022)
pIC50: −log10 of the molar value. Structures can show the parent of a compound that is named as a salt.

Experiments:
NLRP3 [1] = target: T1, NLRP3 (Homo sapiens, UniProt Q96P20); experiment: Human whole blood IL-1β release assay (LPS + nigericin, AlphaLisa); type: cell-based; parameters: Human whole blood in Li-heparin tubes was obtained from healthy donors; from tissue; host or cells: human whole blood from healthy donors; conditions: NLRP3 inhibitory activity, 1 μg/ml LPS, 10 μM nigericin, read-out: HWB IC50
T1 sequence (Q96P20 whole entry): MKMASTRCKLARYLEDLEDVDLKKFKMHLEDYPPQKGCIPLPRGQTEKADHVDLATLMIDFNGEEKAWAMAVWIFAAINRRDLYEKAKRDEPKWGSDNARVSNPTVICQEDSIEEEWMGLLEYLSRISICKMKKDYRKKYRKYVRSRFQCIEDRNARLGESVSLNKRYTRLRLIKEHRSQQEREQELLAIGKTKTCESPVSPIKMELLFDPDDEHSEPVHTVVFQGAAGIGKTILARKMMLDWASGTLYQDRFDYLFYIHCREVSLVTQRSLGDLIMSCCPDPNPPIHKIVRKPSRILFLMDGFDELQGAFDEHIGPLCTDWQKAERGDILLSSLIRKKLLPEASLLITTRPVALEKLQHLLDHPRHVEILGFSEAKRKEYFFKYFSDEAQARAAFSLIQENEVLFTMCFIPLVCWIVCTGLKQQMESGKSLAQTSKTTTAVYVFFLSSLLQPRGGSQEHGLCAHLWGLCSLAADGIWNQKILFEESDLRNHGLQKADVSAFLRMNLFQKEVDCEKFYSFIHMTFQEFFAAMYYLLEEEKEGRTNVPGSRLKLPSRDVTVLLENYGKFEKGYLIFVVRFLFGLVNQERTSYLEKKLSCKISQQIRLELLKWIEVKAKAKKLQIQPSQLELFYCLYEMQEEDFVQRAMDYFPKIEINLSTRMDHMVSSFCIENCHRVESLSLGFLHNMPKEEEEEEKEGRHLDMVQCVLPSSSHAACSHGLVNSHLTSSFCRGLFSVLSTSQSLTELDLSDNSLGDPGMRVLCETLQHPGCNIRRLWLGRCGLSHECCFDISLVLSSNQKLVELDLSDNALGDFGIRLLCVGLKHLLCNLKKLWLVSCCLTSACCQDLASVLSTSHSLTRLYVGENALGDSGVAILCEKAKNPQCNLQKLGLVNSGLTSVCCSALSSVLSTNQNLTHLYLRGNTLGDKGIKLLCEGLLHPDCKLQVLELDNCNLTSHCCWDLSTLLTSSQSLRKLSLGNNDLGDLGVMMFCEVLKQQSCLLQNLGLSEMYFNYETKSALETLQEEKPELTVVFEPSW
Description: For systemic delivery, the ability to inhibit NLRP3 when the compounds are present within the bloodstream is of great importance. For this reason, the NLRP3 inhibitory activity of a number of compounds in human whole blood was investigated in accordance with the following protocol. Human whole blood in Li-heparin tubes was obtained from healthy donors from a volunteer donor panel. • 1. […] Incubate for 3 hrs at 37° C., 5% CO2 • 4. Add 10 μl nigericin (Sigma #N7143) (10 μM FAC) to all wells • 5. Incubate for 1 hr at 37° C., 5% CO2 • 6. At the end of the incubation period, spin plates at 300×g for 5 mins to pellet cells and remove 20 μl of supernatant and add to 96-well v-bottom plates for IL-1β analysis (note: these plates containing the supernatants can be stored at -80° C. to be analysed at a later date) • 7. IL-1β was measured according to the manufacturer protocol (Perkin Elmer-AlphaLisa IL-1 Kit A[…]-5000) • 8.

NLRP3 [2] = target: T1, NLRP3; experiment: THP-1 cells pyroptosis assay (LPS + nigericin, resazurin read-out); type: cell-based; parameters: Seed THP-1 cells (25,000 cells/well) containing 1.0 μg/ml LPS; host or cells: THP-1 cells; conditions: NLRP3 inhibitory activity, 1 μg/ml LPS, 5 μM nigericin
Description: The cells were routinely passaged and grown to confluency (˜10^6 cells/ml). On the day of the experiment, THP-1 cells were harvested and resuspended into RPMI medium (without FBS). The cells were then counted and viability (>90%) checked by Trypan blue (Sigma #T8154). […] To this diluted cell solution was added LPS (Sigma #L4524) to give a 1 μg/ml Final Assay Concentration (FAC). 40 μl of the final preparation was aliquoted into each well of a 96-well plate. The plate thus prepared was used for compound screening. The following method step-by-step assay was followed for compound screening. • 1. […] Incubate for 3 hrs at 37° C., 5% CO2 • 4. Add 5 μl nigericin (Sigma #N7143) (FAC 5 μM) to all wells • 5. Incubate for 1 hr at 37° C., 5% CO2 • 6. At the end of the incubation period, spin plates at 300×g for 3 mins and remove supernatant • 7. Then add 50 μl of resazurin (Sigma #R7017) (FAC 100 μM resazurin in RPMI medium without FBS) and incubate plates for a further 1-2 hrs at 37° C. and 5% CO2 • 8.

CC(C)n1ccc(S(=O)(=O)NC(=O)Nc2c3c(c(F)c4c2CCC4)CCC3)n1 [Example 61, N-((8-Fluoro-1,2,3,5,6,7-hexahydro-s-indacen-4-yl)carbamoyl)-1-isopropyl-1H-pyrazole-3-sulfonamide, sodium salt]
pIC50 (NLRP3 [1]): 6.00 to 6.30
pIC50 (NLRP3 [2]): > 6.60

COC(C)c1cc(S(=O)(=O)NC(=O)Nc2c3c(cc4c2CCC4)CCC3)nn1C (stereo not drawn) [Example 53, N-((1,2,3,5,6,7-Hexahydro-s-indacen-4-yl)carbamoyl)-5-(1-methoxyethyl)-1-methyl-1H-pyrazole-3-sulfonamide]
pIC50 (NLRP3 [1]): 6.00 to 6.30
pIC50 (NLRP3 [2]): > 6.60

COC(C)(C)c1cc(S(=O)(=O)NC(=O)Nc2c(C(C)C)cc(F)cc2C(C)C)nn1C [Example 82, N-((4-Fluoro-2,6-diisopropylphenyl)carbamoyl)-5-(2-methoxypropan-2-yl)-1-methyl-1H-pyrazole-3-sulfonamide]
pIC50 (NLRP3 [1]): 6.00 to 6.30
pIC50 (NLRP3 [2]): 6.30 to 6.60

CC(C)n1ccc(S(=O)(=O)NC(=O)Nc2c3c(cc4c2C(=O)CC4)CCC3)n1 [Example 15, 1-Isopropyl-N-((3-oxo-1,2,3,5,6,7-hexahydro-s-indacen-4-yl)carbamoyl)-1H-pyrazole-3-sulfonamide, potassium salt]
pIC50 (NLRP3 [1]): < 5.00
pIC50 (NLRP3 [2]): 5.30 to 6.00

Cc1cc(CN(C)C)cc(S(=O)(=O)NC(=O)Nc2c3c(cc4c2CCC4)CCC3)c1 [Example 57, 3-((Dimethylamino)methyl)-N-((1,2,3,5,6,7-hexahydro-s-indacen-4-yl)carbamoyl)-5-methylbenzenesulfonamide, sodium salt]
pIC50 (NLRP3 [1]): 5.30 to 6.00
pIC50 (NLRP3 [2]): > 6.60

CC(C)n1cc(F)c(S(=O)(=O)NC(=O)Nc2c3c(cc4c2CCC4)CCC3)n1 [Example 55, 4-Fluoro-N-((1,2,3,5,6,7-hexahydro-s-indacen-4-yl)carbamoyl)-1-isopropyl-1H-pyrazole-3-sulfonamide]
pIC50 (NLRP3 [1]): 6.00 to 6.30
pIC50 (NLRP3 [2]): > 6.60

COC(C)(C)c1cc(S(=O)(=O)NC(=O)Nc2c(C(C)C)cccc2C(C)C)nn1C [Example 81, N-((2,6-Diisopropylphenyl)carbamoyl)-5-(2-methoxypropan-2-yl)-1-methyl-1H-pyrazole-3-sulfonamide]
pIC50 (NLRP3 [1]): 6.30 to 6.60
pIC50 (NLRP3 [2]): 6.30 to 6.60

CC(C)c1cc(F)cc2c1C(C(=O)NS(=O)(=O)c1cc(C(C)(C)O)cs1)CC2(C)C (single isomer, unassigned) [Example 8, 5-Fluoro-N-((4-(2-hydroxypropan-2-yl)thiophen-2-yl)sulfonyl)-7-isopropyl-3,3-dimethyl-2,3-dihydro-1H-indene-1-carboxamide, potassium salt (rotamer P1)]
pIC50 (NLRP3 [1]): 5.30 to 6.00
pIC50 (NLRP3 [2]): 6.00 to 6.30

CC(C)n1nc(S(=O)(=O)NC(=O)Nc2c3c(cc4c2CCC4)CCC3)cc1C(C)(C)O [Example 49, N-((1,2,3,5,6,7-Hexahydro-s-indacen-4-yl)carbamoyl)-5-(2-hydroxypropan-2-yl)-1-isopropyl-1H-pyrazole-3-sulfonamide]
pIC50 (NLRP3 [1]): 6.00 to 6.30
pIC50 (NLRP3 [2]): > 6.60

CC(O)c1cc(S(=O)(=O)NC(=O)Nc2c3c(cc4c2CCC4)CCC3)nn1C(C)C (stereo not drawn) [Example 54, N-((1,2,3,5,6,7-Hexahydro-s-indacen-4-yl)carbamoyl)-5-(1-hydroxyethyl)-1-isopropyl-1H-pyrazole-3-sulfonamide]
pIC50 (NLRP3 [1]): 6.00 to 6.30
pIC50 (NLRP3 [2]): > 6.60

O=C(Nc1c2c(cc3c1CCC3)C=CC2)NS(=O)(=O)c1cc[nH]n1 [Example 14, N-((1,2,3,5-Tetrahydro-s-indacen-4-yl)carbamoyl)-1H-pyrazole-3-sulfonamide, potassium salt]
pIC50 (NLRP3 [1]): 5.00 to 5.30
pIC50 (NLRP3 [2]): 6.00 to 6.30

CC(C)c1cccc(C(C)C)c1NC(=O)NS(=O)(=O)c1ccn(C(C)C)n1 [Example 68, N-((2,6-Diisopropylphenyl)carbamoyl)-1-isopropyl-1H-pyrazole-3-sulfonamide, sodium salt]
pIC50 (NLRP3 [2]): 5.30 to 6.00

CCOC(=O)CNC(=O)Nc1c2c(cc(C)c1-c1ccnc(OC3CCN(C)CC3)c1)CCC2 [Example 97, Ethyl 2-(3-(6-methyl-5-(2-((1-methylpiperidin-4-yl)oxy)pyridin-4-yl)-2,3-dihydro-1H-inden-4-yl)ureido)acetate]
pIC50 (NLRP3 [2]): 5.30 to 6.00

CC(C)(C)OC(=O)NC/C(=C\F)COc1ccc(S(=O)(=O)NC(=O)Nc2c3c(cc4c2CCC4)CCC3)cc1 [Example 18, tert-Butyl-(3-fluoro-2-((4-(N-((1,2,3,5,6,7-hexahydro-s-indacen-4-yl)carbamoyl)sulfamoyl)phenoxy)methyl)allyl)carbamate, potassium salt]
pIC50 (NLRP3 [2]): 5.30 to 6.00

COc1cc(-c2cc(F)cc(C(C)C)c2CCC(=O)NS(=O)(=O)c2cc(C(C)(C)O)cs2)ccn1 [Example 5, 3-(4-Fluoro-2-isopropyl-6-(2-methoxypyridin-4-yl)phenyl)-N-((4-(2-hydroxypropan-2-yl)thiophen-2-yl)sulfonyl)propanamide]
pIC50 (NLRP3 [2]): 5.00 to 5.30

CC(C)(O)c1coc(S(=O)(=O)NC(=O)Cc2cc(Cl)cc(C(F)(F)F)c2)c1 [Example 92, 2-(3-Chloro-5-(trifluoromethyl)phenyl)-N-((4-(2-hydroxypropan-2-yl)furan-2-yl)sulfonyl)acetamide]
pIC50 (NLRP3 [2]): 5.00 to 5.30

Cc1nn(C(C)C)cc1S(=O)(=O)NC(=O)Nc1c2c(cc3c1CCC3)CCC2 [Example 43, N-((1,2,3,5,6,7-Hexahydro-s-indacen-4-yl)carbamoyl)-1-isopropyl-3-methyl-1H-pyrazole-4-sulfonamide, sodium salt]
pIC50 (NLRP3 [2]): 6.30 to 6.60

CC(C)(O)c1coc(S(=O)(=O)NC(=O)Cc2cc(C(F)(F)F)cc(C(F)(F)F)c2)c1 [Example 98, 2-(3,5-bis(Trifluoromethyl)phenyl)-N-((4-(2-hydroxy-propan-2-yl)furan-2-yl)sulfonyl)acetamide]
pIC50 (NLRP3 [2]): 5.30 to 6.00

CC(C)c1cc(F)cc2c1C(C(=O)NS(=O)(=O)c1cc(C(=O)N(C)C)n(C)n1)CC2(C)C (stereo not drawn) [Example 11, 3-(N-(5-Fluoro-7-isopropyl-3,3-dimethyl-2,3-dihydro-1H-indene-1-carbonyl)sulfamoyl)-N,N,1-trimethyl-1H-pyrazole-5-carboxamide]
pIC50 (NLRP3 [2]): 5.00 to 5.30

CC(C)c1cccc(O[C@@H]2CCOC2)c1NC(=O)NS(=O)(=O)c1ccn(C(C)C)n1 [Example 85, (R)-1-Isopropyl-N-((2-isopropyl-6-((tetrahydrofuran-3-yl)oxy)phenyl)carbamoyl)-1H-pyrazole-3-sulfonamide]
pIC50 (NLRP3 [2]): 5.00 to 5.30

CC(C)c1cc(F)cc(C(C)C)c1CC(=O)NS(=O)(=O)c1ncc(C(C)(C)O)s1 [Example 30, 2-(4-Fluoro-2,6-diisopropylphenyl)-N-((5-(2-hydroxypropan-2-yl)thiazol-2-yl)sulfonyl)acetamide]
pIC50 (NLRP3 [2]): 5.30 to 6.00

CC(C)c1cc(F)cc(C(C)C)c1CC(=O)NS(=O)(=O)c1cnc(C(C)(C)O)s1 [Example 27, 2-(4-Fluoro-2,6-diisopropylphenyl)-N-((2-(2-hydroxypropan-2-yl)thiazol-5-yl)sulfonyl)acetamide]
pIC50 (NLRP3 [2]): 5.30 to 6.00

CC(C)n1ccc(S(=O)(=O)NC(=O)Nc2c3c(c(Br)c4c2CCC4)CCC3)n1 [Example 38, N-((8-Bromo-1,2,3,5,6,7-hexahydro-s-indacen-4-yl)carbamoyl)-1-isopropyl-1H-pyrazole-3-sulfonamide]
pIC50 (NLRP3 [2]): > 6.60

CC(C)c1cc(F)cc(C(C)C)c1CC(=O)NS(=O)(=O)c1ccc2ccccc2c1 [Example 96, 2-(4-Fluoro-2,6-diisopropylphenyl)-1-(2-naphthylsulfonylamino)-1-ethanone]
pIC50 (NLRP3 [2]): 5.30 to 6.00

CC(C)(O)c1coc(S(=O)(=O)NC(=O)Cc2cccc(I)c2)c1 [Example 93, N-((4-(2-Hydroxypropan-2-yl)furan-2-yl)sulfonyl)-2-(3-iodophenyl)acetamide]
pIC50 (NLRP3 [2]): 5.00 to 5.30

CC(C)(O)c1coc(S(=O)(=O)NC(=O)Cc2cc(Cl)cc(OC(F)(F)F)c2)c1 [Example 91, 2-(3-Chloro-5-(trifluoromethoxy)phenyl)-N-((4-(2-hydroxypropan-2-yl)furan-2-yl)sulfonyl)acetamide]
pIC50 (NLRP3 [2]): 5.30 to 6.00

CC(C)(O)c1coc(S(=O)(=O)NC(=O)Cc2noc3ccccc23)c1 [Example 90, 2-(Benzo[d]isoxazol-3-yl)-N-((4-(2-hydroxypropan-2-yl)furan-2-yl)sulfonyl)acetamide]
pIC50 (NLRP3 [2]): 5.30 to 6.00

CCOC(=O)c1cc(S(=O)(=O)NC(=O)Nc2c3c(cc4c2CCC4)CCC3)nn1C [Example 79, Ethyl 3-(N-((1,2,3,5,6,7-hexahydro-s-indacen-4-yl)carbamoyl)sulfamoyl)-1-methyl-1H-pyrazole-5-carboxylate]
pIC50 (NLRP3 [2]): 6.00 to 6.30
